Experimental data: paper PMC10227015, “From a drug repositioning to a structure-based drug design approach to tackle acute lymphoblastic leukemia” (Nature Communications, 2023)
Where two headings read alike, the source gives them in different places.

Columns and labels:
dCK-C3S-S74E [1] = target: T1, dCK-C3S-S74E (Homo sapiens, UniProt P27707, form not given/S74E); assay: Thermal shift assay (TSA); settings: for ΔTm (º) (TSA): Figure 2a, mean; for Thermal Shift Assay Mean (ΔTm (º)): Figure 2b
[2] = Acute in vivo toxicity, unique IP injection; settings: male, mouse, in vivo; Swiss mice, IP, unique injection; read-out: Maximum tolerated dose
Description: (§1) To evaluate the in vivo toxicity selected compounds were injected by intraperitoneal (IP) route to 7 weeks-old male Swiss mice (n = 2) at 10, 20, 40, 50, or 80 mg/kg by unique injection. […] Compounds were administered in their hydrochloride salt forms. Mice were then observed closely for the next one hour, then every hour for 8 h. Observations were continued for 72 h for signs of pain or toxicity such as change in the behavior and in the activity in the cage (decreased locomotion) or change in the appearance (curved back, eyes half-closed, bristle hair, hips hollowed out). In vivo toxicity of compound OR0642 at 40 and 80 mg/kg was also assessed in the NOD-SCID-IL2Rγc null (NSG) mice model for 2 weeks in the presence and absence of dT to confirm the safety of the compound. […]. Blood samples were collected and spun at 10,000 × g prior to collecting the plasma supernatants. All plasma samples were frozen at −80 °C before sample processing. 13 μl of each plasma sample was mixed with 33 μl of acetonitrile to precipitate proteins and extract the compound. Samples were vortexed for 5 min and then placed in an ultrasonic bath for 1 min. The precipitated proteins were sedimented by centrifugation (15,000 × g, 5 min, 16 °C). Supernatants were transferred to a microplate to be analyzed by LC–MS/MS. All samples were analyzed with a UHPLC coupled to a Shimadzu LC-MS 8030 triple quadrupole. The solutions of a standard range, prepared with plasma from untreated mice, were analyzed in the same series of injections.

dCK-C3S-S74E [3] = target: T1, dCK-C3S-S74E; assay: Enzymatic assay (PK/LDH coupled), dC phosphorylation by dCK in the presence of ATP; type: biochemical; settings: for IC50: read-out: ENZYMATIC ASSAY IC50, presence of ATP, [dCK] = 50 nM (footnote A)
Description: (§2) For enzymatic assays, cells were re-suspended in 20 mM TRIS, pH 8 500 mM NaCl, 0.1% BRIJ-35 and 5% glycerol buffer and one EDTA free anti-protease tablet was added (Roche). After sonication and centrifugation (30,000 × g), the supernatant was loaded on a 5 ml HisTrap FF column (GE healthcare) pre-equilibrated with 20 mM TRIS, pH 8, 500 mM NaCl, 0.01% BRIJ-35 and 5% glycerol buffer. The protein was then eluted by the same buffer containing 250 mM imidazole after a wash containing 25 mM imidazole. The eluted fraction was applied on a HiPrep 26/10 desalting column (GE healthcare) pre-equilibrated with 20 mM TRIS, pH 8, 500 mM NaCl, 5% glycerol and 0.01% BRIJ-35 buffer. Finally, protein in a 20% glycerol buffer was flash frozen in liquid nitrogen and stored at −80 °C.
(§3) Kinetic analyses were performed using a spectrophotometric continuous enzymatic-coupled assay using pyruvate kinase (PK) and lactate dehydrogenase (LDH). Analysis of the effect of compounds on dCK-C3S-S74E activity was performed using dC as substrate and UTP/ATP as phosphate donors. UTP is the physiological dCK-phosphate donor[46] and it was used to determine activation versus inhibition behavior. ATP was used to calculate IC50 values, as it allows the analysis of a dose response curve. The PK/LDH coupled assay is based on the conversion of phosphoenolpyruvate (PEP) and UDP/ADP to pyruvate and UTP/ATP by PK and the subsequent conversion of pyruvate to lactate by LDH. The latter step requires NADH, which is oxidized to NAD^+. NADH is fluorescent (excitation at 337 nm and emission at 460 nm), but not NAD^+. Thus, the measurement of fluorescent decrease at 460 nm is a measure of kinase activity. dCK experiments were performed in a buffer containing 50 mM HEPES, pH 7.5, 5 mM MgCl2, 1 mM DTT, and 100 mM KCl. Buffer was supplemented with PK (0.01 U/µl), LDH (0.02 U/µl), PEP (1 mM), NADH (300 µM) and compounds at varying concentrations. For UTP assays, protein concentration was 2 μM, substrate 200 µM (dC), and UTP 1 mM. For ATP assays, protein concentration was 100 nM (and 50 nM when indicated), substrate 100 µM (dC), and ATP 1 mM. All measurements were performed on a microplate reader Pherastar FS (BMG Labtech). All assays were performed in triplicate and each experiment was performed at least twice. The data are presented as mean ± SD. The results were plotted as kinetics and the velocity was determined for each condition as the slope of the linear range of the curve. For each compound concentration, the velocity of the reaction (according to V = d[P]/dt) was normalized with respect to the drug free control and velocity ratios were compared. IC50 values corresponding to enzymatic inhibition in ATP were calculated by nonlinear regression curves using GraphPad Prism software 9.4.0.

[4] = Plasma pharmacokinetics after IP administration; type: in vivo; settings: male, Swiss, mouse, mice; for half-life: read-out: T ½ (converted)
Description: as §1

dCK-C3S-S74E [5] = target: T1, dCK-C3S-S74E; assay: Enzymatic assay (PK/LDH coupled), dC phosphorylation by dCK in the presence of UTP; type: biochemical; settings: presence of UTP
Description: as §2
as §3, with “Analysis of the effect of compounds on dCK-C3S-S74E activity was performed using dC as substrate and UTP/ATP as phosphate donors.” left out

CCRF-CEM cell line = assay: dCK cellular assay: CCRF-CEM proliferation in the presence of dT and dC; type: cell-based, human; settings: Homo sapiens; Figure 2a, CCRF-CEM cell line, mean; read-out: IC50 (nM) (Cell Prolif)
Summary of the method: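 Two conditions in T-ALL CCRF-CEM cells: compound only, and compound with thymidine blocking de novo synthesis and deoxycytidine rescuing via dCK. Metabolic dye fluorescence (560/590 nm) gives % proliferation vs DMSO; IC50s, mean ± SD of at least three triplicate runs.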

dCK-C3S-S74E [6] = target: T1, dCK-C3S-S74E
Swiss male mice = assay: Acute in vivo toxicity, unique IP injection; settings: mice, 80 mg/kg/day
Description: as §1

T1 sequence (P27707 whole entry S74E, form open): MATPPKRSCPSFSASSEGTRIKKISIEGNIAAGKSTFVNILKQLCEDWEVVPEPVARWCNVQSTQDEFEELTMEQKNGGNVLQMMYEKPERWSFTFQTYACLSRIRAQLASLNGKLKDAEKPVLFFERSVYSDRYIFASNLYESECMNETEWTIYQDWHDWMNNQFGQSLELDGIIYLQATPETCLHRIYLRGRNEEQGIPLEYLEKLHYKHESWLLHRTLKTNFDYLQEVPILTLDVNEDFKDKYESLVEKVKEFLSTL

| Compound | ΔTm (º) (TSA) (dCK-C3S-S74E [1]) | Thermal Shift Assay Mean (ΔTm (º)) (dCK-C3S-S74E [1]) | MTD at 72 h [2] [mg/kg] | Enzymatic activity (ATP) Mean (% activity) (dCK-C3S-S74E [3]; 0.02 µM) [%] | Enzymatic activity (ATP) Mean (% activity) (dCK-C3S-S74E [3]; 0.04 µM) [%] | Enzymatic activity (ATP) Mean (% activity) (dCK-C3S-S74E [3]; 0.08 µM) [%] | Enzymatic activity (ATP) Mean (% activity) (dCK-C3S-S74E [3]; 0.16 µM) [%] | Enzymatic activity (ATP) Mean (% activity) (dCK-C3S-S74E [3]; 0.31 µM) [%] | Enzymatic activity (ATP) Mean (% activity) (dCK-C3S-S74E [3]; 0.63 µM) [%] | Enzymatic activity (ATP) Mean (% activity) (dCK-C3S-S74E [3]; 1.25 µM) [%] | Enzymatic activity (ATP) Mean (% activity) (dCK-C3S-S74E [3]; 2.5 µM) [%] | Enzymatic activity (ATP) Mean (% activity) (dCK-C3S-S74E [3]; 5 µM) [%] | IC50 (dCK-C3S-S74E [3]) [µM] | ENZYMATIC ASSAY (Activation/Inhibition) (dCK-C3S-S74E [5]) | also measured |
| --- | --- | --- | --- | --- | --- | --- | --- | --- | --- | --- | --- | --- | --- | --- | --- |
| CCCN(c1nc(-c2nc(N)cc(N)n2)cs1)c1cc(-c2ccc(S(=O)(=O)N3CCN(C)CC3)cc2)ccc1C [OR0624] | 19.49 º | 19.5 º | 20 | 91.0 | 91.7 | 65.2 | 32.0 | 9.2 | 3.9 | 2.6 | 1.2 | 0.363 | 0.198 ± 0.131 | I | THERMAL SHIFT ASSAY +Tm (°) (dCK-C3S-S74E [1]; mean ± SD): 19.5 ± 0.8 °; Cmax ([4]; dose 20 mg/Kg): 3.1 ± 0.6 µM; Tmax ([4]; dose 20 mg/Kg): 1 h; half-life ([4]; dose 20 mg/Kg): 2.22 ± 0.183 h |
| CCCN(c1nc(-c2nc(N)cc(N)n2)cs1)c1cc(-c2ccc(OCC(=O)N3CCN(C)CC3)nc2)ccc1C [OR0630] | – | – | – | – | – | – | – | – | – | – | – | – | – | – | IC50 (CCRF-CEM cell line): 245 nM; ΔTm (º) (TSA) (dCK-C3S-S74E [6]): 17.35 º |
| CCCN(c1nc(-c2nc(N)cc(N)n2)cs1)c1cc(-c2ccc(S(=O)(=O)N3CCN(C)CC3)nc2)ccc1C [OR0634] | 17.45 º | 17.5 º | > 80 | 89.7 | 80.2 | 45.4 | 12.5 | 4.0 | 2.2 | 1.9 | 1.6 | 1.6 | 0.1 ± 0.082 | I | in vivo tolerance (Swiss male mice): well tolerated; Cmax ([4]; dose 40 mg/Kg): 5.5 ± 1.3 µM; Tmax ([4]; dose 40 mg/Kg): 1 h; half-life ([4]; dose 40 mg/Kg): 2.15 ± 0.283 h |
